In PMC8399847, “Hybrid Quinolinyl Phosphonates as Heterocyclic Carboxylate Isosteres: Synthesis and Biological Evaluation against Topoisomerase 1B (TOP1B)” (Pharmaceuticals, 2021):

What was measured:
[1] = tested on: L. infantum promastigotes; experiment: In vitro iRFP-L. infantum promastigotes viability assay; type: cell-based; settings: Leishmania infantum; 96 h exposure, EC50 ± SD
Experimental: The effect of the new quinolinylphosphonate derivatives 7 synthesized was assessed on both free-living promastigotes and intramacrophage amastigotes of L. infantum as it is described in experimental protocols. Primary cultures of intramacrophage amastigotes were obtained from splenic explants from 6-weeks infected Balb/c mice with L. infantum-iRFP promastigotes. The infrared fluorescence emitted by both stage forms of the parasite was used as viability criterium, using 0.5% DMSO as negative control (100% viability) and […] AMB as a positive control (0% viability).
A genetically modified strain of L infantum BCN 150, expressing iRFP protein from Rhodopseudomonas palustris bacteriophytochrome (iRFP-L. infantum), was used to obtain the EC50 values of the different compounds against promastigotes, through the detection of the near-infrared radiation emitted by living parasites exposed to tested molecules. Thus, the viability of promastigotes was calculated after recording their fluorescence at 708 nm in an Odyssey (Li-Cor, NE, USA) infrared imaging.
iRFP-L. infantum promastigotes were cultured using M199 medium (Gibco, Thermo Fisher Scientific, MA, USA), supplemented with 25 mM 4-(2-hydroxyethyl)-1-piperazineethanesulfonic acid (HEPES) pH 6.9, […] hemin, 10 mM glutamine, 0.1 mM adenosine, 0.01 mM folic acid, 1× RPMI 1640 vitamin mix (Sigma, Darmstadt, Germany), 10% (v/v) heat-inactivated foetal bovine serum (Gibco, Thermo Fisher Scientific, MA, USA), 50 U/mL penicillin and 50 µg/mL streptomycin. The assay was carried out, seeding 1 × 10^6 cells/mL of iRFP-L. infantum promastigotes into 96-well optical bottom black plates (Thermo Scientific, MA, USA) along with different concentrations of compound to each well. The final concentration of DMSO, the solvent used to prepare the stock solutions of compounds, was never higher than 0.1%. All of the compounds’ concentrations and controls were assayed by triplicate.

[2] = tested on: HEK293 (human embryonic kidney); experiment: CCK-8 cytotoxicity assay, HEK293; type: cell-based; settings: HEK293, 48 h, CCK-8, 50% growth inhibition
Experimental: The cytotoxicity of the newly synthesized quinolinylphosphonates 7 was evaluated in vitro by testing their antiproliferative activities against several human cancer cell lines: A549 (human lung adenocarcinoma cells), SKOV3 (human ovarian carcinoma), and HEK293 (human embryonic kidney). In order to analyze the selective cytotoxicity facing exclusively cancerous cell lines, cytotoxicity against non-cancerous cell lines (MRC-5, lung fibroblast cells) was also evaluated. Cell counting kit (CCK-8) assay was employed to assess growth inhibition and, cell proliferation inhibitory activities of compounds that are listed in Table 1 as IC50 values. […] According to the data presented in Table 1, in general, all these phosphorated derivatives present higher selective cytotoxicity in the A549 cell line than in the other two cell lines, SKOV3 and HEK293, although slight differences are observed compared to human ovarian carcinoma (SKOV3).
Cells were cultured according to the supplier’s instructions, A549 (ATCC® CCL-185), SKOV3 (ATCC® HTB-77), HEK293 (CLS GmbH), MRC-5 (ATCC® CCL-171™). Cells were seeded in 96-well plates at a density of 2–2.5 × 10^3 cells per well and incubated overnight in 0.1 mL of media supplied with 10% Fetal Bovine Serum (Lonza, Basel, Switzerland) in a 5% CO2 incubator at 37 °C. On day 2, drugs (concentration between 0.5–50 μM) were added and samples were incubated for 48 h. After treatment, 10 μL of cell counting kit-8 was added to each well for an additional 2 h incubation at 37 °C. The absorbance of each well was determined by an Automatic Elisa Reader System at 450 nm wavelength. CPT was purchased from Sigma-Aldrich and used as a positive control.

[3] = tested on: leishmanial TOP1B (LTOP1B); experiment: LTOP1B relaxation activity assay; type: biochemical, Leishmania; settings: 100 µM of compound, 1 min
Experimental: The inhibition of relaxation activity of LTOP1B by the compounds was tested at 100 µM. The reactions were performed for 1 min in the way described in the experimental protocols section. The percentage of inhibition was calculated by measuring the intensity of the band corresponding to the supercoiled DNA when the different DNA topoisomers were separated in an agarose gel.
Purification of leishmanial DNA topoisomerase 1B (LTOP1B) was carried out as reported previously. Shortly, LTOP1B was purified using the deficient in TOP1 activity yeast strain, EKY3 MAT α ura3–52 his3Δ20ting, from the union of the bicistronic expression vector pESC-URA to both subunits of LTOP1B. The yeast cells were grown in a yeast synthetic drop-out medium without uracil (Sigma) supplemented with 2% raffinose (w/v) to OD600: 0.8–1 and induced for 10 h with 2% galactose (w/v). After that, the cells were harvested, washed with cold TEEG buffer (50 mM Tris–HCl pH 7.4, 1 mM EDTA, 1 mM EGTA, 10% glycerol), resuspended in 15 mL of 1× TEEG buffer supplemented with 0.2 M KCl and a protease inhibitors cocktail (Thermo Scientific, Waltham, MA, USA) and lysed. Protein extract obtained was loaded on a 5 mL Heparin Sepharose column (GE Healthcare, MA, USA). LTOP1B enzyme was eluted at 4 °C with a discontinuous gradient of KCl (0.2, 0.4, 0.6 M) in TEEG buffer.
Leishmanial TOP1B activity was tested by the relaxation of supercoiled plasmid DNA assay. Each reaction contained: one unit of purified LTOP1B enzyme, 100 µM of each compound, 0.5 μg of supercoiled pSK DNA, 10 mM Tris-HCl buffer pH 7.5, 5 mM MgCl2, 0.1 mM EDTA, 15 µg/mL bovine serum albumin, and 150 mM KCl. The final volume of each reaction was 20 µL. Reaction mixtures were incubated for 1 min at 37 °C and stopped by the addition of a 4 µL loading buffer (5% sarkosyl, 0.12% bromophenol blue, 25% glycerol). The DNA topoisomers were resolved in 1% agarose gels by electrophoresis in 0.1 M Tris borate EDTA buffer (pH 8.0) at 2 V/cm for 16 h and visualized with UV illumination after ethidium bromide (0.5 μg/mL) staining. The percentage of inhibition was calculated by measuring the intensity of the band corresponding to the supercoiled DNA after separating and staining the different DNA topoisomers. This analysis was performed using the GeneTools from Syngene software (Version 4.3.8, MD, USA).

[4] = tested on: murine splenocytes; experiment: Splenocyte viability, Alamar Blue; type: cell-based, BALB/c mice; settings: for IC50: Mus musculus, Splenocyte, read-out: IC50 Splenocites; for SI (selectivity index): ratio IC50 splenic cells / EC50 amastigotes
Experimental: The viability of splenocytes cells against the different compounds was measured using the Alamar Blue staining method (Invitrogen, MA, USA). For this purpose, these cells were obtained following the protocol indicated in the previous section, from uninfected mice. Plots of absorbance of viable cells (obtained following manufacturer’s recommendations of Alamar Blue) vs compounds concentration were used to calculate CC50 values. Plots were fitted by nonlinear analysis using the Sigma Plot 10.1 statistical package. The assays were performed by triplicate.
The selectivity index for each compound was calculated as the ratio between the IC50 value for splenic cells and the EC50 value for amastigotes.

Row | SMILES | EC50 [1] | IC50 [2] | melting point | LTOP1B Inhibition [3] | IC50 [4] | SI (selectivity index) [4]
1 | CCOP(=O)(OCC)c1ccc2nc(-c3ccc(F)cc3)cc(-c3ccccc3)c2c1 [7r, Diethyl (2-(4-fluorophenyl)-4-phenylquinolin-6-yl)phosphonate] | 15.2 ± 1.14 µM | 36.9 ± 8.06 µM | 137 to 139 °C | 1.94% | 28.1 ± 1.23 µM | 1
2 | CCOP(=O)(OCC)c1cccc2c(-c3ccccc3)cc(-c3ccccc3OC)nc12 [7d, Diethyl (2-(2-methoxyphenyl)-4-phenylquinolin-8-yl)phosphonate] | 11.4 ± 0.62 µM | > 50 µM | 121 to 123 °C | 46.41% | 30.1 ± 6.05 µM | 1.5
3 | CCOP(=O)(OCC)c1ccc2nc(-c3ccc(F)cc3)cc(-c3ccc(F)cc3)c2c1 [7t, Diethyl (2,4-bis(4-fluorophenyl)quinolin-6-yl)phosphonate] | 16.7 ± 0.72 µM | > 50 µM | 161 to 164 °C | 37.86% | 45 ± 10.2 µM | 1.4
4 | CCOP(=O)(OCC)c1cccc2c(-c3ccccc3)cc(-c3ccc(F)cc3)nc12 [7b, Diethyl (4-Phenyl-2-(fluorophenyl)quinolin-8-il) phosphonate] | 7.63 ± 0.76 µM | 43 ± 4.65 µM | 116 to 118 °C | 24.43% | 12.2 ± 1.77 µM | 0.8
5 | CCOP(=O)(OCC)c1cccc2c(-c3ccc(F)cc3)cc(-c3ccc(F)c(F)c3)nc12 [7i, Diethyl (2-(3,4-difluorophenyl)-4-(4-fluorophenyl)quinolin-8-yl)phosphonate] | 6.35 ± 0.16 µM | > 50 µM | 159 to 161 °C | 54.01% | 20.6 ± 3.11 µM | 1.5
6 | CCOP(=O)(OCC)c1cccc2c(-c3ccc(F)cc3)cc(-c3ccccc3)nc12 [7g] | 16.1 ± 1.94 µM | 24.4 ± 3.46 µM | 172 to 174 °C | 16.49% | 33.9 ± 7.98 µM | 2.8
7 | CCOP(=O)(OCC)c1cccc2c(-c3ccccc3)cc(-c3ccccc3)nc12 [7a, Diethyl (2,4-diphenylquinolin-8-yl)phosphonate] | 0.91 ± 0.04 µM | 27.3 ± 2.22 µM | 118 to 120 °C | 58.87% | 3.61 ± 0.45 µM | 0.9
8 | CCOP(=O)(OCC)c1ccc2nc(-c3ccc(F)c(F)c3)cc(-c3ccccc3)c2c1 [7s, Diethyl (2-(3,4-difluorophenyl)-4-phenylquinolin-6-yl)phosphonate] | 14.7 ± 1.78 µM | 19.2 ± 1.13 µM | 134 to 136 °C | 14.56% | 26.2 ± 0.51 µM | 1.8
9 | CCOP(=O)(OCC)c1ccc2nc(-c3ccc(F)c(F)c3)cc(-c3ccc(F)cc3)c2c1 [7u, Diethyl (2-(3,4-difluorophenyl)-4-(4-fluorophenyl)quinolin-6-yl)phosphonate] | 7.07 ± 0.61 µM | > 50 µM | 130 to 132 °C | 50.24% | > 100 µM | >3.8
10 | CCOP(=O)(OCC)c1ccc2nc(-c3ccc(F)c(F)c3)cc(-c3ccc(C)cc3)c2c1 [7x, Diethyl (2-(3,4-difluorophenyl)-4-(p-tolyl)quinolin-6-yl)phosphonate] | 21.3 ± 2.34 µM | > 50 µM | 158 to 160 °C | 43.84% | 32.3 ± 3.36 µM | 1
11 | Cc1ccc(-c2cc(-c3ccc(F)c(F)c3)nc3c(P(=O)(OC(C)C)OC(C)C)cccc23)cc1 [7q, Diisopropyl (2-(3,4-difluorophenyl)-4-(p-tolyl)quinolin-8-yl)phosphonate] | 7.46 ± 0.76 µM | 12.3 ± 0.71 µM | 140 to 142 °C | 52.65% | 28.3 ± 9.16 µM | 2
12 | CC(C)OP(=O)(OC(C)C)c1cccc2c(-c3ccc(F)cc3)cc(-c3ccc(F)cc3)nc12 [7n, Diisopropyl (2,4-bis(4-fluorophenyl)quinolin-8-yl)phosphonate] | 4.86 ± 0.5 µM | 15 ± 0.99 µM | 113 to 115 °C | 43.31% | 15.3 ± 1.72 µM | 2.8
13 | CCOP(=O)(OCC)c1cccc2c(-c3ccccc3)cc(-c3ccc(OC)cc3)nc12 [7c, Diethyl (2-(4-methoxyphenyl)-4-phenylquinolin-8-yl)phosphonate] | 9.46 ± 1.67 µM | 38.3 ± 8.9 µM | 120 to 122 °C | 45.45% | 15.9 ± 1.65 µM | 1.9
14 | CCOP(=O)(OCC)c1ccc2nc(-c3ccc(F)cc3)cc(-c3ccc(C)cc3)c2c1 [7v, Diethyl (2-(4-fluorophenyl)-4-(p-tolyl)quinolin-6-yl)phosphonate] | 7.02 ± 0.94 µM | > 50 µM | 153 to 155 °C | 43.25% | 11.2 ± 4.42 µM | 0.6
15 | CCOP(=O)(OCC)c1cccc2c(-c3ccc(C)cc3)cc(-c3ccc(F)c(F)c3)nc12 [7k, Diethyl (2-(3,4-difluorophenyl)-4-(p-tolyl)quinolin-8-yl)phosphonate] | 2.59 ± 0.48 µM | 22.3 ± 1.36 µM | 133 to 135 °C | 77.02% | 24.1 ± 7.79 µM | 0.9
